Source: PubChem BioAssay (NCI)
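Where inhibition never reached the appropriate level, the endpoint shown equals the highest concentration tested. Otherwise, values were interpolated linearly from a five-concentration, 48-hour dose response in 96-well plates. Abbreviation: GI50, concentration required for 50% inhibition of growth. TGI is the concentration that stops growth completely.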

Legend:
Assay in all cases: inhibition of tumour cell growth, NCI panel, 48 h
BT-549 breast = tested on: BT-549 breast
HOP-92 NSCLC = tested on: HOP-92 NSCLC
M14 melanoma = tested on: M14 melanoma
MCF7 breast = tested on: MCF7 breast
MDA-MB-231 breast = tested on: MDA-MB-231 breast
NCI-H23 lung = tested on: NCI-H23 lung
NCI-H522 lung = tested on: NCI-H522 lung
SF-268 CNS = tested on: SF-268 CNS
SN12C renal = tested on: SN12C renal
SW-620 colon = tested on: SW-620 colon

Compound	GI50 (BT-549 breast) [µM]	TGI (BT-549 breast) [µM]	GI50 (HOP-92 NSCLC) [µM]	TGI (HOP-92 NSCLC) [µM]	GI50 (M14 melanoma) [µM]	TGI (M14 melanoma) [µM]	GI50 (MCF7 breast) [µM]	TGI (MCF7 breast) [µM]	GI50 (MDA-MB-231 breast) [µM]	TGI (MDA-MB-231 breast) [µM]	GI50 (NCI-H23 lung) [µM]	TGI (NCI-H23 lung) [µM]	GI50 (NCI-H522 lung) [µM]	TGI (NCI-H522 lung) [µM]	GI50 (SF-268 CNS) [µM]	TGI (SF-268 CNS) [µM]	GI50 (SN12C renal) [µM]	TGI (SN12C renal) [µM]	GI50 (SW-620 colon) [µM]	TGI (SW-620 colon) [µM]
O=C(Nc1cccc(C(F)(F)F)c1)c1cccc(NC2=C(Cl)C(=O)N(Cc3ccccc3)C2=O)c1	18.8	64.2	2.89	32.7	3.68	14.3	3.28	> 100	5.38	> 100	25.4	64.8	4.88	23.5	5.96	40.9	14.9	> 100	38.4	> 100
O=C1/C(=C/c2ccc([N+](=O)[O-])s2)Oc2ccccc21	0.745	1.98	0.557	2.29	1.17	3.57	0.75	5.02	0.279	0.818	1.31	3.19	0.189	0.382	0.367	1.5	1.23	3.04	0.257	0.725
CCOC(=O)N1C/C(=C/c2ccc(OC)cc2)C(=O)/C(=C/c2ccc(OC)cc2)C1	2.01	4.47	4.97	> 56.3	2.11	5.2	0.363	3.2	2.38	6.48	3.26	20.2	2.91	11.1	3.58	> 45.1	1.91	4.23	1.37	4.4
CS(=O)c1ccc(-c2nc(-c3ccc(F)cc3)c(-c3ccncc3)[nH]2)cc1 (stereo not given)	21	72.4	28.8	> 100	11.3	43.3	33.6	> 100	48.4	> 100	59.2	> 100	28.8	> 85.6	49.4	> 100	41.9	> 100	30	> 75
O=C1NC(=O)C2(CCC(O)C2)c2cc[n+]([O-])cc21 (stereo not given)		> 100		> 100		> 100		> 100		> 100		> 100		> 100		> 100		> 100		> 100
C=C1CC2(OC1=O)c1ccccc1C=Cc1ccccc12		3.61		3.44		10		6.54		5.41		14.7		3.35		17.4		7.14		4.54
O=[N+]([O-])c1cc(Cl)cc2c1nc(NCCO)c1ccccc12		> 82.1		> 88		> 100		> 72.4		> 100		> 80.9		62.9		> 100		> 100		> 100
CC(=O)NCCCCCCNC(C)=O		> 10000		> 6730		> 10000		> 9380		> 5620		> 10000		9120		> 10000		> 10000		> 10000
CCCCN(CCCC)CC(C)(C)C(O)c1ccc(OC)c2ccccc12 (stereo not given)	12.1	30.3	3.11	8.81	4.21	17.7	3.55	15.4	6.76	21.9	2.29	9.36	4.18	18.5	12.6	38.3	4.54	20.6	2.54	14.5
O=C1C(Cl)=C(Nc2cccc(C(F)(F)F)c2)C(=O)N1Cc1ccccc1Cl	1.95	18.1	8.34	28.4	6.21	19.1	4.21	> 31.8	2.67	17.4	5.45	23.2	0.49	19.8	7.7	26.1	3.96	16.8	2.38	22.2
